Experimental data published in PubChem BioAssay AID248 (DTP/NCI, 2004).
“And” between values parts separate entries of the source, which are not always exact repeats. Equal values may be shown once. Toxic doses and inconclusive results are not listed. No stated cut-off is given here; in the data, active means T/C of 150% or more; inactive means T/C below 125%.

Test system: L1210 leukemia ip in BDF1 mice, survival T/C
Assay: NCI In Vivo Anticancer Drug Screen. Data for tumor model L1210 Leukemia (intraperitoneal) in B6D2F1 (BDF1) mice
Details: endpoint: mean survival time, higher = longer survival
Outline: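 Each compound was tested against a transplantable tumor grown in mice. The endpoint was survival, with treated animals benchmarked against vehicle controls as a simple ratio.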

[1] = dose: 100.0 mg/kg/injection, schedule: Q01DX001 (ip), vehicle: other
[2] = dose: 200.0 mg/kg/injection, schedule: Q01DX001 (ip), vehicle: other
[3] = dose: 100.0 mg/kg/injection, schedule: Q01DX009 (ip), vehicle: Klucel (hydroxypropylcellulose) (HPC)
[4] = dose: 200.0 mg/kg/injection, schedule: Q01DX009 (ip), vehicle: Klucel (hydroxypropylcellulose) (HPC)
[5] = dose: 400.0 mg/kg/injection, schedule: Q01DX009 (ip), vehicle: Klucel (hydroxypropylcellulose) (HPC)
[6] = dose: 100.0 mg/kg/injection, schedule: Q04DX003 (ip), vehicle: Klucel (hydroxypropylcellulose) (HPC)
[7] = dose: 200.0 mg/kg/injection, schedule: Q04DX003 (ip), vehicle: Klucel (hydroxypropylcellulose) (HPC)
[8] = dose: 400.0 mg/kg/injection, schedule: Q04DX003 (ip), vehicle: Klucel (hydroxypropylcellulose) (HPC)
[9] = dose: 100.0 mg/kg/injection, schedule: Q04DX003 (ip), vehicle: saline
[10] = dose: 200.0 mg/kg/injection, schedule: Q04DX003 (ip), vehicle: saline
[11] = dose: 400.0 mg/kg/injection, schedule: Q04DX003 (ip), vehicle: saline
[12] = dose: 100.0 mg/kg/injection, schedule: Q01DX001 (ip), vehicle: saline
[13] = dose: 200.0 mg/kg/injection, schedule: Q01DX001 (ip), vehicle: saline
[14] = dose: 10.0 mg/kg/injection, schedule: Q01DX001 (ip), vehicle: saline
[15] = dose: 20.0 mg/kg/injection, schedule: Q01DX001 (ip), vehicle: saline
[16] = dose: 400.0 mg/kg/injection, schedule: Q01DX001 (ip), vehicle: saline
[17] = dose: 200.0 mg/kg/injection, schedule: Q01DX009 (ip), vehicle: saline with Tween-80

Measured: T/C

CC(=O)O[C@H]1[C@H]2O[C@]23[C@@H]2CC[C@]4(O)C[C@@H](O)CC[C@]4(C)[C@H]2CC[C@]3(C)[C@H]1c1ccc(=O)oc1
inactive: dose: 10.0 mg/kg/injection, schedule: Q01DX001 (ip), vehicle: other 90 % of control | dose: 20.0 mg/kg/injection, schedule: Q01DX001 (ip), vehicle: other 100 % of control | dose: 40.0 mg/kg/injection, schedule: Q01DX001 (ip), vehicle: other 107 % of control | [1] 94 % of control | [2] 92 % of control

CC1CC(NC(=S)NC(=O)c2ccc(Cl)cc2Cl)CC(C)(C)C1 (stereo not drawn)
inactive: [3] 91 % of control | [4] 96 % of control | [5] 91 % of control

CCCCOc1ccc(C=Nc2ccc(C)cc2)cc1
inactive: dose: 12.5 mg/kg/injection, schedule: Q01DX009 (ip), vehicle: Klucel (hydroxypropylcellulose) (HPC) 110 % of control | dose: 25.0 mg/kg/injection, schedule: Q01DX009 (ip), vehicle: Klucel (hydroxypropylcellulose) (HPC) 109 % of control | dose: 50.0 mg/kg/injection, schedule: Q01DX009 (ip), vehicle: Klucel (hydroxypropylcellulose) (HPC) 103 % of control | [3] 93 % of control | [6] 97 % of control | [7] 95 % of control | [5] 92 % of control | [8] 107 % of control

CC(=O)OCCC/C(=C\c1ccc(C)cc1)[N+](=O)[O-]
inactive: dose: 100.0 mg/kg/injection, schedule: Q01DX001 (ip), vehicle: carboxymethylcellulose (CMC) 88 % of control | dose: 200.0 mg/kg/injection, schedule: Q01DX001 (ip), vehicle: carboxymethylcellulose (CMC) 88 % of control | dose: 400.0 mg/kg/injection, schedule: Q01DX001 (ip), vehicle: carboxymethylcellulose (CMC) 88 % of control

CCOC(=O)CC(C(=O)OCC)C(OCC)OCC (stereo not drawn)
inactive: [9] 104 % of control | [10] 106 % of control | [11] 111 % of control

OC(CNc1ccc(Cl)cc1)CN1CCOCC1 (stereo not drawn)
inactive: [9] 96 % of control | [10] 89 % of control

COc1cc2cc3c4cc(OC)c(OC)cc4cc[n+]3c(/C=C/c3cc([N+](=O)[O-])ccc3O)c2cc1OC
inactive: [1] 97 % of control and 100 % of control | dose: 100.0 mg/kg/injection, schedule: Q04DX002 (ip), vehicle: other 112 % of control and 92 % of control | dose: 100.0 mg/kg/injection, schedule: Q04DX003 (ip), vehicle: other 106 % of control | [2] 97 % of control and 103 % of control | dose: 200.0 mg/kg/injection, schedule: Q04DX002 (ip), vehicle: other 95 % of control and 88 % of control | dose: 200.0 mg/kg/injection, schedule: Q04DX003 (ip), vehicle: other 106 % of control | dose: 400.0 mg/kg/injection, schedule: Q01DX001 (ip), vehicle: other 96 % of control and 107 % of control | dose: 400.0 mg/kg/injection, schedule: Q04DX002 (ip), vehicle: other 94 % of control and 98 % of control | dose: 400.0 mg/kg/injection, schedule: Q04DX003 (ip), vehicle: other 101 % of control

CC1=C2CCC(C)CC23C2C(=O)OC(=O)C2C1C1C(=O)OC(=O)C13 (stereo not drawn)
inactive: dose: 25.0 mg/kg/injection, schedule: Q01DX009 (ip), vehicle: saline 100 % of control | dose: 50.0 mg/kg/injection, schedule: Q04DX003 (ip), vehicle: saline 101 % of control | [12] 93 % of control | [9] 90 % of control | [13] 108 % of control

CCOC(=O)C1=NC=NC1=[N+]=[N-]
inactive: dose: 5.0 mg/kg/injection, schedule: Q01DX001 (ip), vehicle: saline 92 % of control | [14] 94 % of control | [15] 100 % of control

C1=C\CCCC/C=C/CC/1
inactive: dose: 50.0 mg/kg/injection, schedule: Q01DX001 (ip), vehicle: saline 103 % of control | [12] 92 % of control | [13] 101 % of control | [16] 90 % of control

CC(=O)Nc1ccc2c(c1)C(N)c1ccccc1-2 (stereo not drawn)
inactive: dose: 88.0 mg/kg/injection, schedule: Q01DX Z (ip), vehicle: carboxymethylcellulose (CMC) 103 % of control | dose: 88.0 mg/kg/injection, schedule: Q01DX Z (ip), vehicle: saline 94 % of control | [12] 113 % of control | dose: 100.0 mg/kg/injection, schedule: Q01DX009 (ip), vehicle: saline 105 % of control | [9] 98 % of control | dose: 132.0 mg/kg/injection, schedule: Q01DX009 (ip), vehicle: saline with Tween-80 111 % of control | dose: 132.0 mg/kg/injection, schedule: Q01DX009 (ip), vehicle: saline 99 % of control | dose: 133.0 mg/kg/injection, schedule: Q01DX Z (ip), vehicle: carboxymethylcellulose (CMC) 92 % of control | dose: 133.0 mg/kg/injection, schedule: Q01DX Z (ip), vehicle: saline 98 % of control | [13] 113 % of control | [17] 118 % of control | dose: 200.0 mg/kg/injection, schedule: Q01DX009 (ip), vehicle: saline 108 % of control | dose: 200.0 mg/kg/injection, schedule: Q01DX Z (ip), vehicle: carboxymethylcellulose (CMC) 105 % of control | [10] 103 % of control | dose: 300.0 mg/kg/injection, schedule: Q01DX009 (ip), vehicle: saline 100 % of control | [16] 109 % of control | [11] 122 % of control

O=C1/C(=C/c2ccccc2)CCC2C1CCCC21OCCO1 (stereo not drawn)
inactive: dose: 75.0 mg/kg/injection, schedule: Q01DX001 (ip), vehicle: saline 97 % of control | dose: 75.0 mg/kg/injection, schedule: Q04DX003 (ip), vehicle: saline 100 % of control | dose: 150.0 mg/kg/injection, schedule: Q01DX001 (ip), vehicle: saline 95 % of control | dose: 150.0 mg/kg/injection, schedule: Q04DX003 (ip), vehicle: saline 103 % of control | dose: 300.0 mg/kg/injection, schedule: Q01DX001 (ip), vehicle: saline 107 % of control | dose: 300.0 mg/kg/injection, schedule: Q04DX003 (ip), vehicle: saline 101 % of control

CCOC(=O)c1[nH]c(C)c(C(=O)OCc2ccccc2)c1CCC(=O)O
inactive: dose: 75.0 mg/kg/injection, schedule: Q01DX001 (ip), vehicle: saline with Tween-80 92 % of control | dose: 150.0 mg/kg/injection, schedule: Q01DX001 (ip), vehicle: saline with Tween-80 97 % of control | dose: 300.0 mg/kg/injection, schedule: Q01DX001 (ip), vehicle: saline with Tween-80 100 % of control

CCOC(=O)C1C(O)CC2COC(=O)C2C1c1ccc(OC(C)=O)cc1 (stereo not drawn)
inactive: [1] 100 % of control | [2] 95 % of control

Cc1cccc(C)c1NC(=O)COc1ccc(Cl)cc1
inactive: [3] 105 % of control | [6] 95 % of control | [4] 86 % of control | [7] 93 % of control | [5] 97 % of control | [8] 91 % of control

c1ccc(N2CCOCC2)cc1
inactive: dose: 12.5 mg/kg/injection, schedule: Q01DX009 (ip), vehicle: saline with Tween-80 93 % of control | dose: 25.0 mg/kg/injection, schedule: Q01DX009 (ip), vehicle: saline with Tween-80 100 % of control | dose: 50.0 mg/kg/injection, schedule: Q01DX009 (ip), vehicle: saline with Tween-80 89 % of control | [3] 95 % of control | dose: 100.0 mg/kg/injection, schedule: Q01DX009 (ip), vehicle: saline with Tween-80 92 % of control | [4] 93 % of control | [17] 92 % of control | [5] 101 % of control

COC(=O)c1ccccc1OC(=O)c1ccccc1
inactive: [9] 105 % of control | [10] 97 % of control | [11] 105 % of control

CCCCCCCCCCCCCCCCCC[n+]1cccc(C#N)c1
inactive: dose: 5.0 mg/kg/injection, schedule: Q01DX009 (ip), vehicle: saline 98 % of control | [14] 93 % of control | dose: 10.0 mg/kg/injection, schedule: Q01DX009 (ip), vehicle: saline 92 % of control | dose: 10.0 mg/kg/injection, schedule: Q04DX003 (ip), vehicle: saline 105 % of control | [15] 91 % of control | dose: 20.0 mg/kg/injection, schedule: Q04DX003 (ip), vehicle: saline 97 % of control | dose: 40.0 mg/kg/injection, schedule: Q01DX001 (ip), vehicle: saline 91 % of control | dose: 40.0 mg/kg/injection, schedule: Q04DX003 (ip), vehicle: saline 114 % of control
